Molecular target: Human RSK2 (Homo sapiens (Human), UniProt P51812)
Assay: Human RSK2 Assay (Kinase Glo Plus, residual ATP)
Format: biochemical
Settings: 0.75 nM His-RSK2, 0.75 μM ATP, 1.0 μM S6 Kinase/RSK Substrate Peptide 1
Description: Experimental Method A: Human RSK2 Assay
Compounds are assessed for their ability to inhibit the phosphorylation of a substrate peptide by RSK2.
Human RSK2 protein, purchased from Invitrogen, is used to measure kinase activity utilizing Kinase Glo Plus (Promega) a homogeneous assay technology, which uses a luciferin-luciferase based ATP detection reagent to quantify residual ATP. The assay is performed using 0.75 nM His-RSK2, 0.75 μM ATP and 1.0 μM S6 Kinase/RSK Substrate Peptide 1 (Upstate, catalog #12-124), in assay buffer consisting of 25 mM HEPES, pH 7.5, 10 mM MgCl2, 5 mM MnCl2, 50 mM KCl, 0.2% BSA, 0.01% CHAPS, 100 μM Na3VO4, 0.5 mM DTT, and 1% DMSO. Solutions of test compounds at various concentrations are prepared by 1:3 fold serial dilution of a 1 mM solution of compound in DMSO. The DMSO solutions are further diluted with assay buffer to a final concentration of DMSO of 5%.
The assay is performed in a 384 well, white, non-binding plate (Corning, catalogue #3574). Solutions of test compounds (10 μL) are transferred to a dry assay plate, followed by addition of 20 μL kinase and 20 μL ATP+Substrate Peptide 1 described above. The kinase reaction mixture is incubated for 90 minutes at 28° C. followed by addition of 30 μL of ATP detection reagent for 15 minutes at room temperature. The relative light unit (RLU) signal is measured on a LJL Analyst (Molecular Devices) in luminescence mode using 384 aperture. The RLU signals were converted to percent of control (POC) values using the formula: POC=100*(BCTRL−Signal)/(BCTRL−PCTRL), where Signal is the test well RLU signal, BCTRL is the average of background (negative control), which consists of ATP+peptide and compound buffer, well signals on the plate, and PCTRL is the average of positive control, which consists of kinase, ATP+peptide, and compound buffer, well signals on the plate. For concentration-responsive compounds, POC as a function of test compound concentration are fitted to a 4-parameter logistic equation of the form: Y=A+(B−A)/[1+(x/C)^D], where A, B, C, and D are fitted parameters (parameter B is fixed at zero POC), and x and y are the independent and dependent variables, respectively. The IC50 (50% inhibitory concentration) is determined as the inflection point parameter, C. Experimental Method B: Human RSK2 Trans-Reporter Assay

Chain of Human RSK2 (P51812 whole entry): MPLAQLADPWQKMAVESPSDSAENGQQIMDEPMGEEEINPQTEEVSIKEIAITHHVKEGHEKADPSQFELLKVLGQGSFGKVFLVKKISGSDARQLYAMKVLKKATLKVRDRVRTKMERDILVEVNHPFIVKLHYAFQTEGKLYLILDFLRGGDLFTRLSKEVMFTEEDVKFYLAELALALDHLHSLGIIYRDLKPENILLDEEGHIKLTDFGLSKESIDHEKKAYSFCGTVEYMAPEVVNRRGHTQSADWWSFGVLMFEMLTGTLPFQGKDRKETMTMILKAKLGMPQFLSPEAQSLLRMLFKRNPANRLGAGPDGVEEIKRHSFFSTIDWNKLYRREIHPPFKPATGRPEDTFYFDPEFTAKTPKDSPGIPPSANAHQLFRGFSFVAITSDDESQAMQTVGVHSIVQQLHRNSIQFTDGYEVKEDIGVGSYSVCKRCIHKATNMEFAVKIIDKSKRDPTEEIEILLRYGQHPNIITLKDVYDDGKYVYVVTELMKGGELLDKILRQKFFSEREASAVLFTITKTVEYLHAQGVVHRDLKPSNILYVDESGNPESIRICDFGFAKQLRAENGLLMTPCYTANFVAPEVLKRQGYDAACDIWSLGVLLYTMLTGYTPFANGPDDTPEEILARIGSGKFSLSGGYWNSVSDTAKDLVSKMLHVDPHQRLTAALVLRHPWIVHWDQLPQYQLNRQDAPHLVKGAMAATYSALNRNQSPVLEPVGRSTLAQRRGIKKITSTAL

In order of falling IC50:
1. CC(C)(C)c1cc(NC(=O)c2ccc3nc4n(c3c2)CCCNC4=O)no1 [Example 21, N-(5-tert-butyl-1,2-oxazol-3-yl)-1-oxo-2,3,4,5-tetrahydro-1H-[1,4]diazepino[1,2-a]benzimidazole-8-carboxamide]  2000 nM
2. O=C(Nc1cccc(-c2c[nH]cn2)c1)c1ccc2nc3n(c2c1)CCCNC3=O [Example 22, N-[3-(1H-imidazol-4-yl)phenyl]-1-oxo-2,3,4,5-tetrahydro-1H-[1,4]diazepino[1,2-a]benzimidazole-8-carboxamide]  1700 nM
3. Cc1cc(NC(=O)c2ccc3nc4n(c3c2)CCCNC4=O)no1 [Example 20, N-(5-methyl-1,2-oxazol-3-yl)-1-oxo-2,3,4,5-tetrahydro-1H-[1,4]diazepino[1,2-a]benzimidazole-8-carboxamide]  1550 nM
4. O=C(Nc1cc(-c2ccccc2)no1)c1ccc2nc3n(c2c1)CCCNC3=O [Example 19, 1-oxo-N-(3-phenyl-1,2-oxazol-5-yl)-2,3,4,5-tetrahydro-1H-[1,4]diazepino[1,2-a]benzimidazole-8-carboxamide]  290 nM
5. CC(C)n1ncc2cc(NC(=O)c3ccc4cc5n(c4n3)CC(C)(C)CNC5=O)cnc21 [Example 31, 9,9-dimethyl-6-oxo-N-[1-(propan-2-yl)-1H-pyrazolo[3,4-b]pyridin-5-yl]-7,8,9,10-tetrahydro-6H-pyrido[3′,2′:4,5]pyrrolo[1,2-a][1,4]diazepine-2-carboxamide]  105 nM
6. CC1(C)CNC(=O)c2cc3ccc(C(=O)Nc4cnc5ccccc5c4)nc3n2C1 [Example 39, 9,9-dimethyl-6-oxo-N-(quinolin-3-yl)-7,8,9,10-tetrahydro-6H-pyrido[3′,2′:4,5]pyrrolo[1,2-a][1,4]diazepine-2-carboxamide]  91 nM
7. CCOC(=O)c1nc(NC(=O)c2ccc3cc4n(c3n2)CCCNC4=O)cn1C [Example 28, ethyl 1-methyl-4-{[(6-oxo-7,8,9,10-tetrahydro-6H-pyrido[3′,2′:4,5]pyrrolo[1,2-a][1,4]diazepin-2-yl)carbonyl]amino}-1H-imidazole-2-carboxylate]  90 nM
8. Cn1cc(NC(=O)c2ccc3cc4n(c3n2)CC(C)(C)CNC4=O)cn1 [Example 42, 9,9-dimethyl-N-(1-methyl-1H-pyrazol-4-yl)-6-oxo-7,8,9,10-tetrahydro-6H-pyrido[3′,2′:4,5]pyrrolo[1,2-a][1,4]diazepine-2-carboxamide]  72 nM
9. CC1(C)CNC(=O)c2cc3ccc(C(=O)Nc4cnc5c(cnn5C5CCOCC5)c4)nc3n2C1 [Example 34, 9,9-dimethyl-6-oxo-N-[1-(tetrahydro-2H-pyran-4-yl)-1H-pyrazolo[3,4-b]pyridin-5-yl]-7,8,9,10-tetrahydro-6H-pyrido[3′,2′:4,5]pyrrolo[1,2-a][1,4]diazepine-2-carboxamide]  62 nM
10. Cc1nc(-c2cccc(NC(=O)c3ccc4cc5n(c4n3)CCCNC5=O)c2)cs1 [Example 24, N-[3-(2-methyl-1,3-triazol-4-yl)phenyl]-6-oxo-7,8,9,10-tetrahydro-6H-pyrido[3′,2′:4,5]pyrrolo[1,2-a][1,4]diazepine-2-carboxamide]  56 nM
11. O=C(Nc1cccnc1)c1ccc2cc3n(c2n1)CCCNC3=O [Example 27, 6-oxo-N-(pyridin-3-yl)-7,8,9,10-tetrahydro-6H-pyrido[3′,2′:4,5]pyrrolo[1,2-a][1,4]diazepine-2-carboxamide]  37 nM
12. CC(C)n1ncc2cc(NC(=O)c3ccc4cc5n(c4n3)CCCNC5=O)cnc21 [Example 30, 6-oxo-N-[1-(propan-2-yl)-1H-pyrazolo[3,4-b]pyridin-5-y]-7,8,9,10-tetrahydro-6H-pyrido[3′,2′:4,5]pyrrolo[1,2-a][1,4]diazepine-2-carboxamide]  25 nM
13. CC1(C)CNC(=O)c2cc3ccc(C(=O)Nc4cnc5c(cnn5CC5CCOC5)c4)nc3n2C1 (centres unmarked) [Example 37, 9,9-dimethyl-6-oxo-N-[1-(tetrahydrofuran-3-ylmethyl)-1H-pyrazolo[3,4-b]pyridin-5-yl]-7,8,9,10-tetrahydro-6H-pyrido[3′,2′:4,5]pyrrolo[1,2-a][1,4]diazepine-2-carboxamide]  25 nM
14. O=C(Nc1cccc(F)c1)c1ccc2cc3n(c2n1)CCCNC3=O [Example 25, N-(3-fluorophenyl)-6-oxo-7,8,9,10-tetrahydro-6H-pyrido[3′,2′:4,5]pyrrolo[1,2-a][1,4]diazepine-2-carboxamide]  20 nM
15. O=C(Nc1cnc2c(cnn2C2CCOCC2)c1)c1ccc2cc3n(c2n1)CCCNC3=O [Example 33, 6-oxo-N-[1-(tetrahydro-2H-pyran-4-yl)-1H-pyrazolo[3,4-b]pyridin-5-yl]-7,8,9,10-tetrahydro-6H-pyrido[3′,2′:4,5]pyrrolo[1,2-a][1,4]diazepine-2-carboxamide]  20 nM
16. O=C(Nc1cnc2c(cnn2CC2CCOC2)c1)c1ccc2cc3n(c2n1)CCCNC3=O (centres unmarked) [Example 36, 6-oxo-N-[1-(tetrahydrofuran-3-ylmethyl)-1H-pyrazolo[3,4-b]pyridin-5-yl]-7,8,9,10-tetrahydro-6H-pyrido[3′,2′:4,5]pyrrolo[1,2-a][1,4]diazepine-2-carboxamide]  13 nM
17. O=C(Nc1cnc2ccccc2c1)c1ccc2cc3n(c2n1)CCCNC3=O [Example 23, 6-oxo-N-(quinolin-3-yl)-7,8,9,10-tetrahydro-6H-pyrido[3′,2′:4,5]pyrrolo[1,2-a][1,4]diazepine-2-carboxamide]  9.2 nM
18. Cn1cc(NC(=O)c2ccc3cc4n(c3n2)CCCNC4=O)cn1 [Example 41, N-(1-methyl-1H-pyrazol-4-yl)-6-oxo-7,8,9,10-tetrahydro-6H-pyrido[3′,2′:4,5]pyrrolo[1,2-a][1,4]diazepine-2-carboxamide]  4.8 nM
19. CC(C)n1c(NC(=O)c2ccc3nc4n(c3c2)C(C)(C)CCNC4=O)nc2ccccc21 [Example 18, 5,5-dimethyl-1-oxo-N-[1-(propan-2-yl)-1H-benzimidazol-2-yl]-2,3,4,5-tetrahydro-1H-[1,4]diazepino[1,2-a]benzimidazole-8-carboxamide]  4.7 nM
20. Cc1ccnc(NC(=O)c2ccc3cc4n(c3n2)CCCNC4=O)c1 [Example 38, N-(4-methylpyridin-2-yl)-6-oxo-7,8,9,10-tetrahydro-6H-pyrido[3′,2′:4,5]pyrrolo[1,2-a][1,4]diazepine-2-carboxamide]  3.8 nM
21. NC(=O)c1ccccc1NC(=O)c1ccc2cc3n(c2n1)CCCNC3=O [Example 26, N-(2-carbamoylphenyl)-6-oxo-7,8,9,10-tetrahydro-6H-pyrido[3′,2′:4,5]pyrrolo[1,2-a][1,4]diazepine-2-carboxamide]  2.3 nM
22. CC1CCNC(=O)c2cc3ccc(C(=O)Nc4cnc5c(cnn5C5CCOCC5)c4)nc3n21 (centres unmarked) [Example 32, 10-methyl-6-oxo-N-[1-(tetrahydro-2H-pyran-4-yl)-1H-pyrazolo[3,4-b]pyridin-5-yl]-7,8,9,10-tetrahydro-6H-pyrido[3′,2′:4,5]pyrrolo[1,2-a][1,4]diazepine-2-carboxamide]  2.3 nM
23. CC(C)n1ncc2cc(NC(=O)c3ccc4cc5n(c4n3)C(C)CCNC5=O)cnc21 (centres unmarked) [Example 29, 10-methyl-6-oxo-N-[1-(propan-2-yl)-1H-pyrazolo[3,4-b]pyridin-5-yl]-7,8,9,10-tetrahydro-6H-pyrido[3′,2′:4,5]pyrrolo[1,2-a][1,4]diazepine-2-carboxamide]  2.1 nM
24. CC1CCNC(=O)c2cc3ccc(C(=O)Nc4cnc5c(cnn5CC5CCOC5)c4)nc3n21 (centres unmarked) [Example 35, 10-methyl-6-oxo-N-[1-(tetrahydrofuran-3-ylmethyl)-1H-pyrazolo[3,4-b]pyridin-5-yl]-7,8,9,10-tetrahydro-6H-pyrido[3′,2′:4,5]pyrrolo[1,2-a][1,4]diazepine-2-carboxamide]  1.6 nM
25. CC1CCNC(=O)c2cc3ccc(C(=O)Nc4cnn(C(C)(C)C)c4)nc3n21 (centres unmarked) [Example 43, N-(1-tert-butyl-1H-pyrazol-4-yl)-10-methyl-6-oxo-7,8,9,10-tetrahydro-6H-pyrido[3′,2′:4,5]pyrrolo[1,2-a][1,4]diazepine-2-carboxamide]  1.1 nM
26. CC1CCNC(=O)c2cc3ccc(C(=O)Nc4cnn(C)c4)nc3n21 (centres unmarked) [Example 40, 10-methyl-N-(1-methyl-1H-pyrazol-4-yl)-6-oxo-7,8,9,10-tetrahydro-6H-pyrido[3′,2′:4,5]pyrrolo[1,2-a][1,4]diazepine-2-carboxamide]  0.78 nM

From US9073926B2, “Heterocyclic compounds containing a pyrrolopyridine or benzimidazole core” (Boehringer Ingelheim International GmbH, priority 2009, dated 2015)
